Source: US8101576B2, “Compounds and their effects on feeding behaviour” (priority 2006, dated 2012)
Square brackets hold non-standard residues; d marks the D form. Ends that are not written are not given here.

Assay: Inhibition of food intake, subcutaneous injection to fasted mice
Format: in vivo, C57BL/6 mice
Conditions: 20 nmoles/kg
Method: Animals: All animal procedures were approved by the British Home Office Animals (Scientific Procedures) Act 1986 (Project License number 70/5516). Male C57BL/6 mice and male Wistar rats were maintained in individual cages under controlled temperature (21-23° C.) with ad libitum access to standard chow (RMI diet, SDS Ltd, Witham, Essex, UK) and to water. The light cycle was 12 hours light and 12 hours dark with ‘dawn’ at 07:00, lights full on at 07:30, ‘dusk’ at 19:00 with lights off at 19:30. These times were fixed in the animal facility, All animals were handled almost daily for on average nine days prior to the first study. During the acclimatization period, mice received two saline injections at least two days apart in order to further acclimatize to the procedure on the study days. It was found in rats that minimising the number of injections provided an optimal response, and so acclimatization injections were not used.
Study protocol: C57BL/6 mice (20-35 g) were injected with the peptide under investigation following a 20-hour fast. Wistar rats were injected following a 24-hour fast. Typically 6 to 10 rodents were used per experimental group. Injections were typically administered at 9:00. A pre-weighed quantity of chow was presented immediately after injection. The remaining food was measured at regular time intervals (e.g. 1, 2, 3, 4, 6, 8, 24, 32 and 48 hours following injection) and food intake calculated.
The feeding effect of the following analogue of oxyntomodulin was investigated: PEPTIDE NO: 355 [SEQ ID NO:355]. The analogue was administered at a dose of […] by subcutaneous injection to a group of fasted mice. A further group was administered saline (control). Mean cumulative food intake over the course of 4 hours is shown in comparison to saline in FIG. 40. […] The food intake suppression continues for the whole 4 hour period; that is to say that the food intake over the 4 hour period is lower than in the saline control.
The feeding effect of the following analogue of oxyntomodulin was investigated: PEPTIDE NO: 130 [SEQ ID NO: 130]. […]

D-His Ala Gln Gly Thr Phe Thr Ser Asp Tyr Ser Lys Tyr Leu Glu Gln Glu Leu Val Lys Tyr Phe Ile Gln Trp Leu Lys Asn Ala Gly Pro Ser Lys Asn Asn Ile Ala ([dH]AQGTFTSDYSKYLEQELVKYFIQWLKNAGPSKNNIA) [PEPTIDE NO: 130]
food intake suppression continues for (24 hours observed): ≥ 24 h | Mean cumulative food intake in comparison to saline control (over 24 hours): potent and long acting suppression of food intake | food intake in comparison to control group treated with native oxyntomodulin (over 24 hours): lower than in the control group treated with native oxyntomodulin
